Measured values published in publication PMC11096368, “Transcriptomic signature, bioactivity and safety of a non-hepatotoxic analgesic generating AM404 in the midbrain PAG region” (Scientific Reports, 2024).

Test: LC–MS/MS detection of D10-SRP-001 and AM404 in the periaqueductal gray (PAG)
Assay type: in vivo, rats
Conditions: 30 min after IP injection, LC/MS–MS
Procedure: Next, we sought to define the uptake of SRP-001 in the nociception area of the brain, the midbrain’s periaqueductal (PAG) area[42],[43]. Thirty min following ip-SRP-001 administration (32 mg/kg), the PAG was harvested and analyzed by LC/MS–MS. D10-SRP-001 was used to match the fragmentation pattern while monitoring analytes.
Deuterated compound D10-SRP-001 was synthesized by Olon Ricerca Bioscience (Concord, OH), and purity was determined to be > 99.9% by HPLC. This was used as pure analytical standard for detection of SRP-001 using an LC–MS/MS method. Similarly, pure analytical standard of AM404 (10 ng/mL) obtained from Cayman Chemical (Ann Arbor, MI) was used to characterize the full fragmentation pattern of AM404. […] Thirty min post-injection, the animals were sacrificed (same as in the CFA/von Frey model), their brains harvested, and the midbrain periaqueductal gray (PAG) region excised. SRP-001 or AM404 were extracted from the PAG using a liquid–liquid extraction method using 1:1 MeOH:H2O for LC–MS/MS and were loaded onto a liquid chromatography-tandem mass spectrophotometer for analysis. The mass spectrophotometer was operated in multiple reaction monitoring (MRM) mode using positive ion electrospray. D10-SRP-001 was detected by monitoring the m/z transition 416 → 186. AM404 was detected by monitoring the m/z transition 396 → 287.

For `[2H]C([2H])([2H])C([2H])([2H])N(C(=O)c1ccccc1S(=O)(=O)NCC(=O)Nc1ccc(O)cc1)C([2H])([2H])C([2H])([2H])[2H]` [D10-SRP-001], the “Detection in rat brain” value was “detected in the brain”.
